Laboratory results reported in ChEMBL document CHEMBL1201862, “PubChem BioAssay data set” (2004).
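Compound exposure: 48 hours, 5 concentrations, 96-well plates. GI50 marks 50% less growth.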 Active and inactive are the calls of the source. Cut-off read from the data, not from the text of the source: active = GI50 up to about 1.1 µM and inactive = higher. Non-standard residues stand in square brackets, D forms with d. Residues, ends and D or L forms follow the SMILES beside them. ξ: configuration not given here. *: point of attachment. ξF = NC(Cc1ccccc1)C(=O)O; Cbz = O=C(OCc1ccccc1)*

What was measured:
Experiment in all cases: NCI anticancer screen, dose series, 48 h
COLO 205 = tested on: COLO 205
RPMI-8226 = tested on: RPMI-8226
EKVX = tested on: EKVX
HCT-116 = tested on: HCT-116
K562 = tested on: K562
NCI/ADR-RES = tested on: NCI/ADR-RES
SK-MEL-5 = tested on: SK-MEL-5
SW-620 = tested on: SW-620
OVCAR-5 = tested on: OVCAR-5
OVCAR-8 = tested on: OVCAR-8
MDA-MB-231 = tested on: MDA-MB-231
IGROV-1 = tested on: IGROV-1
SF-539 = tested on: SF-539
MCF7 = tested on: MCF7
Malme-3M = tested on: Malme-3M
HL-60 = tested on: HL-60
SNB-75 = tested on: SNB-75
SNB-19 = tested on: SNB-19
786-0 = tested on: 786-0
SK-OV-3 = tested on: SK-OV-3

SMILES | GI50 (COLO 205) | GI50 (RPMI-8226) | GI50 (EKVX) | GI50 (HCT-116) | GI50 (K562) | GI50 (NCI/ADR-RES) | GI50 (SK-MEL-5) | GI50 (SW-620) | GI50 (OVCAR-5) | GI50 (OVCAR-8) | GI50 (MDA-MB-231) | GI50 (IGROV-1) | GI50 (SF-539) | GI50 (MCF7) | GI50 (Malme-3M) | GI50 (HL-60) | GI50 (SNB-75) | GI50 (SNB-19) | GI50 (786-0) | GI50 (SK-OV-3)
CCOC(=O)c1nc2ccc(C(F)(F)F)cc2nc1Nc1ccc(OC)cc1 | > 100 µM (inactive) | > 100 µM (inactive) | 98.9 µM (inactive) | 56.4 µM (inactive) | 68.2 µM (inactive) | 63.2 µM (inactive) | 54.7 µM (inactive) | > 100 µM (inactive) | > 100 µM (inactive) | > 100 µM (inactive) | 17.7 µM (inactive) | 36.6 µM (inactive) | 33 µM (inactive) | > 100 µM (inactive) | > 100 µM (inactive) | > 100 µM (inactive) | 93.5 µM (inactive) | 33.6 µM (inactive) | 25.8 µM (inactive) | –
CN1C(=O)N/C(=C\c2ccc(S(=O)(=O)NN)cc2)C1=O | > 100 µM (inactive) | > 100 µM (inactive) | > 100 µM (inactive) | > 100 µM (inactive) | > 100 µM (inactive) | > 100 µM (inactive) | > 100 µM (inactive) | > 100 µM (inactive) | > 100 µM (inactive) | > 100 µM (inactive) | > 100 µM (inactive) | > 100 µM (inactive) | – | > 100 µM (inactive) | > 100 µM (inactive) | > 100 µM (inactive) | > 100 µM (inactive) | > 100 µM (inactive) | > 100 µM (inactive) | > 100 µM (inactive)
c1ccc2/c3[nH]/c(c2c1)=N\c1ccc(cc1)-c1nc2ccc(cc2o1)/N=c1/[nH]/c(c2ccccc12)=N/c1ccc2nc(oc2c1)-c1ccc(cc1)\N=3 | 11.6 µM (inactive) | 18.9 µM (inactive) | 45.6 µM (inactive) | 32.8 µM (inactive) | 15.8 µM (inactive) | 20.5 µM (inactive) | 12.4 µM (inactive) | 26.5 µM (inactive) | > 100 µM (inactive) | > 100 µM (inactive) | 27 µM (inactive) | 47.2 µM (inactive) | 77.1 µM (inactive) | 37.8 µM (inactive) | – | 0.422 µM (active) | > 100 µM (inactive) | 26.1 µM (inactive) | 31 µM (inactive) | 72.8 µM (inactive)
C=C1c2nc3ccccc3n2C=C(c2ccc(Cl)cc2)N1c1ccc(OCCN2CCOCC2)cc1 | 18.9 µM (inactive) | 2.91 µM (inactive) | – | 26.2 µM (inactive) | 9.82 µM (inactive) | 12.3 µM (inactive) | 13.4 µM (inactive) | 22 µM (inactive) | > 100 µM (inactive) | – | 62.4 µM (inactive) | 14.5 µM (inactive) | 55.3 µM (inactive) | 10.7 µM (inactive) | 52 µM (inactive) | 7.91 µM (inactive) | > 100 µM (inactive) | > 100 µM (inactive) | 25.2 µM (inactive) | > 100 µM (inactive)
Cc1cc(O)c2c3c(ccc2c1)C(=O)c1c(O)cccc1C3=O [TETRANGULOL] | 3.25 µM (inactive) | > 28.5 µM (inactive) | 7.14 µM (inactive) | 11.2 µM (inactive) | 18.6 µM (inactive) | 5.97 µM (inactive) | 0.33 µM (active) | – | > 51.3 µM (inactive) | 9.68 µM (inactive) | 17.5 µM (inactive) | 2.21 µM (inactive) | 7.64 µM (inactive) | 3.3 µM (inactive) | 0.0157 µM (active) | 0.692 µM (active) | – | 19.9 µM (inactive) | 7.46 µM (inactive) | > 83.2 µM (inactive)
CCC/N=C/c1c(O)c(O)c(C(C)C)c2cc(C)c(-c3c(C)cc4c(C(C)C)c(O)c(O)c(/C=N/CCC)c4c3O)c(O)c12 | 5.25 µM (inactive) | 9.16 µM (inactive) | 7.19 µM (inactive) | 3.44 µM (inactive) | 2.96 µM (inactive) | 30.1 µM (inactive) | 18.7 µM (inactive) | 6.55 µM (inactive) | 10 µM (inactive) | 6.46 µM (inactive) | 13.9 µM (inactive) | 11.1 µM (inactive) | 5.65 µM (inactive) | 14.7 µM (inactive) | – | 3.01 µM (inactive) | 8.79 µM (inactive) | 6.47 µM (inactive) | 10.2 µM (inactive) | 4.75 µM (inactive)
CCOC(=O)CNC(=O)C(Cc1ccccc1)NC(=O)OCc1ccccc1 (stereo unspecified) (Cbz-[ξF]-Gly-OEt) | > 100 µM (inactive) | > 100 µM (inactive) | > 100 µM (inactive) | > 100 µM (inactive) | > 100 µM (inactive) | > 100 µM (inactive) | > 100 µM (inactive) | > 100 µM (inactive) | > 100 µM (inactive) | > 100 µM (inactive) | > 100 µM (inactive) | > 100 µM (inactive) | – | > 100 µM (inactive) | 86.3 µM (inactive) | > 100 µM (inactive) | > 100 µM (inactive) | > 100 µM (inactive) | > 100 µM (inactive) | > 100 µM (inactive)
